Test results: patent US20040162298A1, “Method of treating HIV infection by preventing interaction of CD4 and gp120” (priority 2002, published 2004)

What was measured:
[1] = test system: HIV-1 single-round infectious reporter virus; assay: Anti-HIV single cycle infection assay (luciferase reporter virus, HeLa/CD4/CCR5 cells); assay type: cell-based; settings: Human immunodeficiency virus 1, HeLa-CD4/CCR5, 72 h, read-out: Anti-HIV single cycle infection EC50
Protocol: EC50 values show concentration of compound needed to inhibit 50% HIV viral replication.
Single-round infectious reporter virus was produced by co-transfecting human embryonic Kidney 293 cells with an HIV-1 envelope DNA expression vector and a proviral cDNA containing an envelope deletion mutation and the luciferase reporter gene inserted in place of HIV-1 nef sequences (Chen, 1994). Transfections were performed using LipofectAMINE PLUS reagent as described by the manufacturer (Life Technologies, Gaithersburg, Md.). The resulting reporter viruses are then used to infect HeLa/CD4/CCR5 cells in the following manner. Serial diluted compound was added to HeLa/CD4/CCR5 cells plated in 96 well plates at a cell density of 5×10^4 cells per well in 100 μl Dulbecco's Modified Eagle Medium containing 10% fetal Bovine serum. One hundred microliter of single-round infectious reporter virus in Dulbecco's Modified Eagle Medium was then added to the plated cells and compound at a multiplicity of infection (MOI) of 0.01. Samples were harvested 72 hours after infection and viral infection was monitored by measuring luciferase expression from viral DNA in the infected cells using a luciferase reporter gene assay kit as described by the manufacturer.

gp120JRFL/CD4 = gp120JRFL/CD4 (Human immunodeficiency virus 1, UniProt Q75760); assay: gp120/CD4 binding assay (ELISA); design: species or system HIV-1
Protocol: The effect of BMS-806 on the gp120/CD4 binding. The gp120JRFL in supernatant was captured onto anti-gp120 antibody (D7324) coated plate. The compound and soluble CD4 were added to the plate simultaneously and CD4 bound to gp120 was detected by ELISA using anti-CD4 antibody OKT4 as a primary antibody and the secondary antibody goat-anti-mouse-peroxidase conjugate. Value are the means±S.E.M which represent multiple separate experiments.
IC50 values show concentration of compound needed to inhibit 50% of binding of gp120 and CD4.
The gp120 capturing ELISA methods was derived from Moore et al (42). Briefly, the 96 well assay plates (Immulon 4, Dynatech Technologies Inc. Chantilly, Va.) were coated overnight at 4° C. with 100 μl per well of 10 ug/ml D7324 solution in 100 mM bicarbonate buffer (pH9.6). The antibody-coated plate was washed twice with TBS (20 mM Tris-HCl, 500 mM NaCl, pH7.5). All wells were blocked with 100 μl of 3% BSA in TBS for ½ hour at room temperature. Excess BSA was removed with three TBS washes. Gp120 (purified or in supernatant) were diluted in buffer C (50 mM Tris-HCl, pH 7.5, 100 mM NaCl, 1% BSA) and added to D7324 coated plate(s) at 100μl/well. After incubating at 37° C. for 2 hours, plate(s) was washes three times with Buffer (20 mM Tris-HCl, 500 mM NaCl, 0.05% Tween-20, pH7.5) and the bound gp120 was detected by Anti-gp120-peroxidase conjugate (Cross-reactive, ImmunoDiagnostics, Inc) at a final dilution of 1:1000 in BufferC. Bound antibody-peroxidase conjugates were detected with TMB solution (Pierce) and the optical density was measured at 450 nm. Known concentration of the purified gp120IIIB (ABI) were used to generate a standard curve for gp120 quantitation.
The assay is similar to the gp120 capturing ELISA method described above with minor modifications.(43). After coating gp120 onto the plates, sCD4 was added to the plate at a final concentration of 200 ng/ml for one hour at room temperature. […] After washing with BufferB, 100 μl of TMB solution was added and the optical density was read at 450 nm.

gp120JRFL [2] = assay: Biacore biosensor binding to immobilized gp120; design: species or system HIV-1; settings: for Biacore signal on gp120-coated surface: compound at 1.5 μM, FIG. 2
Protocol: GP120JRFL was immobilized on the surface of a CM-chip to a surface density of 12000. Inhibitors prepared in the running buffer was flown over the surface at 30 μl/min. The sensorgram was recorded and normalized against the buffer alone sensorgram, using a Biacore 3000 instrument.
Biacore biosensor evaluation of gp120-inhibitor binding. (See FIG. 2 for results). The selective binding of entry inhibitors with gp120 was evaluated on a Biacore 3000 biosensor. Purified gp120JRFL was immobilized onto the flow cell surface of a CM-5 chip via EDC/NHS activated covalent modification, according to the protocol described by Biacore Inc. (Uppsala, Swiden). The surface density of immobilized gp120 reached 12000-15000 RU. Soluble CD4 and BSA coated surfaces were also immobilized on separate flow cell surfaces as controls.

HIV-1 MN = assay: Activity against laboratory adapted HIV-1 strain MN; assay type: cell-based
Protocol: (§1) Viruses and cells: (Method for Table 2 results). T-tropic (X4) strains of laboratory adapted HIV-1 were amplified in MT-2 cells and titered using a virus yield assay (17). The laboratory adapted M-tropic (R5) viruses were grown in macrophages or PM1 cells and p24 ELISA assay was used to detect the virus. The TCID50/ml (tissue culture infectious dose) was calculated by the method of Spearman-Karber. Titration of viral stocks and assaying for compound sensitivity were carried out in the cell lines the viruses were originally amplified in. The 50% inhibitory concentration (EC50) was calculated by using the exponential form of the median effect equation where (Fa)=1/[1+(ED50/drug conc.)^m] (17).

HIV-1 SF-162 = assay: Activity against laboratory adapted HIV-1 strain SF-162; assay type: cell-based; settings: Human immunodeficiency virus 1, CCR5
Protocol: as §1

HIV-1 RF = assay: Activity against laboratory adapted HIV-1 strain RF; assay type: cell-based
Protocol: as §1

HIV-1 NL4-3 = assay: Activity against laboratory adapted HIV-1 strain NL4-3; assay type: cell-based; settings: Human immunodeficiency virus 1, NL43
Protocol: as §1

[3] = test system: laboratory strains of B subtype HIV-1; assay: Activity against panel of laboratory strains of B subtype HIV-1; assay type: cell-based; settings: Human immunodeficiency virus 1, read-out: EC50 values against 11 of the 13 laboratory strains
Protocol: as §1

HIV-1 A0-18 = assay: Activity against laboratory adapted HIV-1 strain A0-18; assay type: cell-based; settings: Human immunodeficiency virus 1
Protocol: as §1

HIV-1 Bal = assay: Activity against laboratory adapted HIV-1 strain Bal; assay type: cell-based; settings: Human immunodeficiency virus 1, BAL, CCR5, Virus Bal
Protocol: as §1

HIV-1 Bru = assay: Activity against laboratory adapted HIV-1 strain Bru; assay type: cell-based; settings: Human immunodeficiency virus 1
Protocol: as §1

HIV-1 JRFL = assay: Activity against laboratory adapted HIV-1 strain JRFL; assay type: cell-based; settings: Human immunodeficiency virus 1, CCR5
Protocol: as §1

HIV-1 IIIB = assay: Activity against laboratory adapted HIV-1 strain IIIB; assay type: cell-based; settings: Human immunodeficiency virus 1, IIIB
Protocol: as §1

HIV = assay: Anti-HIV activity (assay not specified); assay type: cell-based; settings: Human immunodeficiency virus 1, quoted in text
HIV-1 SF-2 = assay: Activity against laboratory adapted HIV-1 strain SF-2; assay type: cell-based; settings: Human immunodeficiency virus 1
Protocol: as §1

HIV-1 LAV = assay: Activity against laboratory adapted HIV-1 strain LAV; assay type: cell-based; settings: Human immunodeficiency virus 1
Protocol: as §1

gp120JRFL [4] = assay: Circular dichroism analysis of gp120 conformational change; design: species or system HIV-1
Protocol: (§2) CD spectra was collected on a Jasco J-720 spectropolarimeter at ambient temperature. Protein concentration in the sample were kept a ˜1 μM, with the exception of sCD4 (1.8 μM) in 20 mM Tris/150 mM NaCl, pH 8.0. Concentration of compound used in the experiments were as indicated.
(§3) Circular Dichroism (CD) analysis. (Method for FIG. 3 results). The CD spectra of purified gp120JRFL (1.2 μM in 5 mM Tris, pH 8.0/150 mM NaCl) were obtained, in the presence and absence of an inhibitor, on a Jasco J-720 spectropolarimeter at ambient (21-23° C.) temperature. Samples containing varying protein-to-compound mole ratios were placed in a quartz cuvette with a 1-mm pathlength. The molar ellipticity (θ) was monitored between 200 nm and 250 nm as the average of 12-20 scans. Soluble CD4 was used as a negative protein controls. Compound, BMS-066, with no anti-HIV activity (EC50>5 μM) was included as a compound control.

[5] = test system: V1V2V3 loop-deleted gp120JRFL; assay: Binding of [3H]BMS-853 to V1V2V3 loop-deleted gp120; design: species or system HIV-1; settings: radioactive inhibitor
gp120JRFL [6] = assay: FlashPlate binding of [3H]BMS-853 to gp120, incl. sCD4 competition; design: species or system HIV-1; settings: radioactive inhibitor
Protocol: Interaction of gp120JRFL (wild type) with ^3H-BMS-853. FlashPlate was coated with increase amount of gp120 and constant amount of ^3H-BMS-853 (16.5 nM) in BufferC was added to each well and the binding assay was allowed to proceed as described in material and methods. Points are averages of duplicate or triplicate determinations.
Competition binding of ^3H-BMS-853 binding to gp120 by soluble CD4.(sCD4) ^3H-BMS-853 bound to gp120 in the presence of varying amount of sCD4 was determined as described under material and methods. Points shown were obtained in a signal experiment, performed in duplicate. Data were analyzed with Prism computer program. (GraphPad Software, Inc).
FlashPlate assay. The binding of [^3H]BMS-853 to gp120 was performed on FlashPlate (NEN,SMP200). Coating of gp120 onto FlashPlate was essentially the same as described for gp120 capturing ELISA. After brief washes of gp120 coated FlashPlate with TBS, [^3H]BMS-853 was added to a final concentration of 16.5 nM in BufferC and the plate was kept at room temperature overnight. The plate was washed once with TBS and then counted in TopCount® Microplate Scintillation counter. Varying concentrations of gp120 were used to show the gp120 dose-dependent binding of [^3H]BMS-853 (FIG. 1).

sCD4 = biological target: T1, sCD4 (Homo sapiens, UniProt P01730); assay: Circular dichroism analysis, sCD4 negative protein control; settings: sCD4 1.8 μM, compound 3.5 μM, FIG. 3B
T1 construct: purchased ImmunoDiagnostics, Inc. (Woburn, Mass.)
Protocol: as §2, §3

O=C(C(=O)N1CCN(C(=O)c2ccccc2)CC1)c1c[nH]c2ccccc12 [BMS-216]
EC50 [1]: 200 nM | IC50 (gp120JRFL/CD4): 1800 ± 300 nM

COc1cnc(-c2cnc(N(C)C)cn2)c2[nH]cc(C(=O)C(=O)N3CCN(C(=O)c4ccccc4)CC3)c12 [BMS-038]
Biacore response at various concentrations on gp120-coated surface (gp120JRFL [2]; various concentrations): dose-dependent increase of reflective index

COc1ccnc2[nH]cc(C(=O)C(=O)N3CCN(C(=O)c4ccccc4)C[C@H]3C)c12 [BMS-806, (R)—N-(benzoyl)-3-methyl-N′-[(4-methoxy-7-azaindol-3-yl)-oxoacetyl]-piperazine]
EC50 (HIV-1 MN; Human immunodeficiency virus 1, Virus MN, coreceptor CXCR4, host MT-2): 844 nM | blocking of infection (HIV-1 MN; virus MN): not efficiently blocked | Biacore signal on gp120-coated surface (gp120JRFL [2]): intermediate signals | EC50 (HIV-1 SF-162): 3.46 nM | EC50 (HIV-1 RF; Human immunodeficiency virus 1): 6030 nM | blocking of infection (HIV-1 RF; virus RF): not efficiently blocked | EC50 (HIV-1 NL4-3): 2.94 nM | EC50 [1]: 0.6 nM | EC50 [3]: 0.85 to 75.8 nM | EC50 (HIV-1 A0-18): 23.6 nM | EC50 (HIV-1 Bal; coreceptor CCR5, host Macrophage): 8.4 nM | EC50 (HIV-1 Bal; coreceptor CCR5, host PM1): 15.5 nM | IC50 (gp120JRFL/CD4): 280 nM | EC50 (HIV-1 Bru): 3.26 nM | EC50 (HIV-1 JRFL): 1.47 nM | EC50 (HIV-1 IIIB): 39.4 nM | EC50 (HIV): 1 nM | EC50 (HIV-1 SF-2): 26.5 nM | EC50 (HIV-1 LAV): 1.98 nM

COc1ccc(OC)c2c(C(=O)C(=O)N3CCN(C(=O)c4ccccc4)CC3)c[nH]c12 [BMS-853]
EC50 [1]: 0.1 nM | IC50 (gp120JRFL/CD4): 24 ± 9 nM

Cc1ccc(C)c2c(C(=O)C(=O)N3CCN(C(=O)c4ccccc4)CC3)c[nH]c12 [BMS-033]
attenuation of the gp120JRFL CD signal (gp120JRFL [4]; compound at 2 μM, FIG. 3C): did not cause any attenuation | EC50 (HIV): > 5000 nM

COc1ccc(OC)c2c(C(=O)C(=O)N3CCN(C(=O)c4ccccc4)CC3)c[nH]c12 [[^3H]BMS-853]
binding to V1V2V3 loop-deleted gp120JRFL [5]: bound significantly less effective | binding to full-length recombinant gp120JRFL (gp120JRFL [6]): bind effectively

COc1ncc(OC)c2c(C(=O)C(=O)N3CCN(C(=O)c4ccccc4)CC3)c[nH]c12 [BMS-043]
Biacore signal on gp120-coated surface (gp120JRFL [2]): intermediate signals | attenuation of the sCD4 CD signal (sCD4): no attenuation | attenuation of the protein CD signal (gp120JRFL [4]; gp120JRFL 1.2 μM, inhibitor 2.1 μM): 40% | EC50 (HIV): 0.8 nM
